In ChEMBL document CHEMBL3822396 (J Med Chem, 2016):
Activity calls are given as the source filed them. The calls are words filed in the database; no cut-off is given here.

Experiments:
[1] = biological target: T1, Toll-like receptor 7 (Homo sapiens) (UniProt Q9NYK1); assay: Activation of TLR7 receptor in human monocytes assessed as inhibition of gardiquimod-stimulated IL8 production preincubated for 30 mins prior to gardiquimod stimulation at 1 uM measured after 6 hrs by immunoassay; type: cell-based
T1 sequence (whole entry): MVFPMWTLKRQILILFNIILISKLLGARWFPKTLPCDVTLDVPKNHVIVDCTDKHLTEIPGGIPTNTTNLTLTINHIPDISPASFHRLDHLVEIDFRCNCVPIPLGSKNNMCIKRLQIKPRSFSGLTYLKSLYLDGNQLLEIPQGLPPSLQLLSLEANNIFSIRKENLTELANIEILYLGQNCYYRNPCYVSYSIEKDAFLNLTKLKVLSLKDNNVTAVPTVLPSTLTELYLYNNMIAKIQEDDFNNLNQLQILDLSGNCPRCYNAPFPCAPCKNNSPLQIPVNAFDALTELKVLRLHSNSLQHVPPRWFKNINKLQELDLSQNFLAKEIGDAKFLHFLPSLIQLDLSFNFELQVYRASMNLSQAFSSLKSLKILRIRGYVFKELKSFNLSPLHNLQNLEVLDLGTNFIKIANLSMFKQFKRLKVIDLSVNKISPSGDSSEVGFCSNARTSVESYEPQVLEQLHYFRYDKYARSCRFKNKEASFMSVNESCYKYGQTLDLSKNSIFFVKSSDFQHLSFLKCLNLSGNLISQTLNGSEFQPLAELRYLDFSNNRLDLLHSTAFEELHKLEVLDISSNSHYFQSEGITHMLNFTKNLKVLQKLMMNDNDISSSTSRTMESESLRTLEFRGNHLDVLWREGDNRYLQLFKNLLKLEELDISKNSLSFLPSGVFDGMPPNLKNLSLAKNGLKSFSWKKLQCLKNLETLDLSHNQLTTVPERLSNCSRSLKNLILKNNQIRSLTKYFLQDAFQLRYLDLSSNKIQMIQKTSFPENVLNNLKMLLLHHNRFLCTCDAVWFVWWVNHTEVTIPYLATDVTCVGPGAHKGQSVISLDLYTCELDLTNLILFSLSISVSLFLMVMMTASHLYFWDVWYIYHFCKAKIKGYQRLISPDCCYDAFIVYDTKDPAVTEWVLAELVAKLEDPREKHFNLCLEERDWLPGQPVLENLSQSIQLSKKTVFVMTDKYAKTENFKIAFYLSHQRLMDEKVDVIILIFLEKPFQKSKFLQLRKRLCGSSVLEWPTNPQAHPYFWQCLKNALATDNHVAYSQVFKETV

[2] = Clearance in Sprague-Dawley rat at 2 mg/kg, po or 1 mg/kg, iv by LC-MS/MS analysis; type: ADME, organism-based; conditions: in vivo
[3] = tested on: Mus musculus; assay: Antiinflammatory activity in Balb/c mouse model of L18-MDP-induced inflammatory peritonitis assessed as inhibition of serum KC level into peritoneal cavity administered orally for 15 mins prior to L18-MDP-challenge measured after 4 hrs; type: functional, organism-based
[4] = Volume of distribution at steady state in Sprague-Dawley rat at 2 mg/kg, po or 1 mg/kg, iv by LC-MS/MS analysis; type: ADME, organism-based; conditions: in vivo, read-out: Vdss
[5] = tested on: Intestinal mucosa; assay: Inhibition of IL6 production in intestinal mucosa derived from ulcerative colitis patient measured after 24 hrs by sandwich ELISA; type: functional, tissue-based; conditions: Homo sapiens
[6] = biological target: Vascular endothelial growth factor receptor 2 (Homo sapiens, UniProt P35968)
[7] = Half life in C57BL/6 mouse at 2 mg/kg, po or 1 mg/kg, iv by LC-MS/MS analysis; type: ADME, organism-based; conditions: in vivo
[8] = AUC in Sprague-Dawley rat at 2 mg/kg, po administered through cassette dosing by LC-MS/MS analysis; type: ADME, organism-based; conditions: in vivo
[9] = biological target: T2, Receptor-interacting serine/threonine-protein kinase 3 (Homo sapiens, UniProt Q9Y572); assay: Inhibition of RIPK3 (unknown origin) in HEK-293 cells assessed as necroptic cell death at 10 uM by cell-based assay; conditions: HEK293
Target sequence in this assay (Q9Y572 whole entry, looked up): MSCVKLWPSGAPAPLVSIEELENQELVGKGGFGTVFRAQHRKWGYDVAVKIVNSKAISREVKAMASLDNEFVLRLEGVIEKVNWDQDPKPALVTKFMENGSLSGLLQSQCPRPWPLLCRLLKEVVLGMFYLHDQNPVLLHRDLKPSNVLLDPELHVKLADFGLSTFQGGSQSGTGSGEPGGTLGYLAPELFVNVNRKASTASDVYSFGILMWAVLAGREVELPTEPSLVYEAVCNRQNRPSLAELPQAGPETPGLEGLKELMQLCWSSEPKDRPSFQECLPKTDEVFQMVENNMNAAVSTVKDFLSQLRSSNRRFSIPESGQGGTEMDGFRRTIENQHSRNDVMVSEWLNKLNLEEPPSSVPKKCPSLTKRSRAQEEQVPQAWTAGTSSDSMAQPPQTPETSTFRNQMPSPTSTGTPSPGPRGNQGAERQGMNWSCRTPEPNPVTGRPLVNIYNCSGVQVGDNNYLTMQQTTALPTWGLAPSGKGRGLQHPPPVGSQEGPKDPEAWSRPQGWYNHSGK

[10] = biological target: T3, Interleukin-1 receptor type 1 (Homo sapiens) (UniProt P14778); assay: Activation of IL-1R in human monocytes assessed as inhibition of IL-1beta-stimulated TNF-alpha production preincubated for 30 mins prior to IL-1beta stimulation at 1 uM measured after 6 hrs by immunoassay; type: cell-based
T3 sequence (whole entry): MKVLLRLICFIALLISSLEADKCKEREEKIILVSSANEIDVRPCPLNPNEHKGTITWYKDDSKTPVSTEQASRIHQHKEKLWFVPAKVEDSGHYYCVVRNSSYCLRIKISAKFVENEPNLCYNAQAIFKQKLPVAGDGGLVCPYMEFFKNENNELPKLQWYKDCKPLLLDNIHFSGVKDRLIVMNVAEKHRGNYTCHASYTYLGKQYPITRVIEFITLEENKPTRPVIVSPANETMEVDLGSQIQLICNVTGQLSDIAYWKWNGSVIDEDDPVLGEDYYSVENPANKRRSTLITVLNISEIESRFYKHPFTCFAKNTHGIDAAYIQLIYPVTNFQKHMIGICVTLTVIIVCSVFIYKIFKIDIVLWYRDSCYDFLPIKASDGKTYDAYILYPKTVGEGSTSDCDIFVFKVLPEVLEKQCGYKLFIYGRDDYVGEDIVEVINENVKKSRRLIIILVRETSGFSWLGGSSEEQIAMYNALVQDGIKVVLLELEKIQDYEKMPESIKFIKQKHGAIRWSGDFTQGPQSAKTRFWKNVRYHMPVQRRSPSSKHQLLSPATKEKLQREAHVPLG

[11] = Fraction unbound in Sprague-Dawley rat blood at 2 mg/kg, po or 1 mg/kg, iv; type: ADME, organism-based; conditions: whole blood
[12] = biological target: T2, Receptor-interacting serine/threonine-protein kinase 3; assay: Inhibition of RIPK3 (unknown origin) preincubated for 10 mins followed by addition of fluorescent-labeled 2-Methyl-5-(2-propen-l-yloxy)aniline measured after 10 mins by fluorescence polarization assay
Target sequence in this assay (Q9Y572 whole entry): as the sequence (Q9Y572 whole entry, looked up) above

[13] = biological target: Receptor-interacting serine/threonine-protein kinase 2 (Rattus norvegicus, UniProt G3V783); assay: Inhibition of rat RIPK2 preincubated for 10 mins followed by addition of fluorescent-labeled 2-Methyl-5-(2-propen-l-yloxy)aniline measured after 10 mins by fluorescence polarization assay
[14] = organism: Homo sapiens; assay: Activation of TFNR in human monocytes assessed as inhibition of TNF-alpha-stimulated IL8 production preincubated for 30 mins prior to TNF-alpha stimulation at 1 uM measured after 6 hrs by immunoassay; type: cell-based
[15] = biological target: Mitogen-activated protein kinase 14 (Homo sapiens, UniProt Q16539)
[16] = Cmax in Sprague-Dawley rat at 2 mg/kg, po administered through cassette dosing as by LC-MS/MS analysis; type: ADME, organism-based; set-up: dose 2 mg/kg, route oral; conditions: in vivo

Mitogen-activated protein kinase 14, sequence (Q16539 whole entry): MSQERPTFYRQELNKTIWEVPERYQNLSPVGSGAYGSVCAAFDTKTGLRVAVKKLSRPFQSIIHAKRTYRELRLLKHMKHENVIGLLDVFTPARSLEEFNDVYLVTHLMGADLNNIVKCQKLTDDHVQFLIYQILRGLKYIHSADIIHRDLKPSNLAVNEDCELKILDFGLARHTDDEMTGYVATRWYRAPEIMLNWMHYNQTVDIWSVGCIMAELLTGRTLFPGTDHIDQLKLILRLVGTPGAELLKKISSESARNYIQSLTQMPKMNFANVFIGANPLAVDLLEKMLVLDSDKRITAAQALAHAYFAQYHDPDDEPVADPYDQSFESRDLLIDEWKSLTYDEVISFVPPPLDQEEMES
Receptor-interacting serine/threonine-protein kinase 2, sequence (G3V783 whole entry): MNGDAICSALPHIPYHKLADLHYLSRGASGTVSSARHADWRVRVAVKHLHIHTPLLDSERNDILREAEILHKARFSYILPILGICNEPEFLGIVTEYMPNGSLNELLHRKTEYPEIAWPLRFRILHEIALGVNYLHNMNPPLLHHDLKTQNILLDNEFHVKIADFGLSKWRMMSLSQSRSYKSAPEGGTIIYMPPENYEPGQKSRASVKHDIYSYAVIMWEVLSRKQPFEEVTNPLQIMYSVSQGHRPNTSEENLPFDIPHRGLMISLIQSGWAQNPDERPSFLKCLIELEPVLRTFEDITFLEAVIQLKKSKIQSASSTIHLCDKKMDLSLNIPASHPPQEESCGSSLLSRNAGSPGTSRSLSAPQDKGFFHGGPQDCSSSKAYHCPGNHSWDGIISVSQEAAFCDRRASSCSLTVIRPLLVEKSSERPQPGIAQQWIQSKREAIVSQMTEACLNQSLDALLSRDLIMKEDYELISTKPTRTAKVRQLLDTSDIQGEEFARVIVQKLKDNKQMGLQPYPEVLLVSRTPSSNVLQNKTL
Vascular endothelial growth factor receptor 2, sequence (P35968 whole entry): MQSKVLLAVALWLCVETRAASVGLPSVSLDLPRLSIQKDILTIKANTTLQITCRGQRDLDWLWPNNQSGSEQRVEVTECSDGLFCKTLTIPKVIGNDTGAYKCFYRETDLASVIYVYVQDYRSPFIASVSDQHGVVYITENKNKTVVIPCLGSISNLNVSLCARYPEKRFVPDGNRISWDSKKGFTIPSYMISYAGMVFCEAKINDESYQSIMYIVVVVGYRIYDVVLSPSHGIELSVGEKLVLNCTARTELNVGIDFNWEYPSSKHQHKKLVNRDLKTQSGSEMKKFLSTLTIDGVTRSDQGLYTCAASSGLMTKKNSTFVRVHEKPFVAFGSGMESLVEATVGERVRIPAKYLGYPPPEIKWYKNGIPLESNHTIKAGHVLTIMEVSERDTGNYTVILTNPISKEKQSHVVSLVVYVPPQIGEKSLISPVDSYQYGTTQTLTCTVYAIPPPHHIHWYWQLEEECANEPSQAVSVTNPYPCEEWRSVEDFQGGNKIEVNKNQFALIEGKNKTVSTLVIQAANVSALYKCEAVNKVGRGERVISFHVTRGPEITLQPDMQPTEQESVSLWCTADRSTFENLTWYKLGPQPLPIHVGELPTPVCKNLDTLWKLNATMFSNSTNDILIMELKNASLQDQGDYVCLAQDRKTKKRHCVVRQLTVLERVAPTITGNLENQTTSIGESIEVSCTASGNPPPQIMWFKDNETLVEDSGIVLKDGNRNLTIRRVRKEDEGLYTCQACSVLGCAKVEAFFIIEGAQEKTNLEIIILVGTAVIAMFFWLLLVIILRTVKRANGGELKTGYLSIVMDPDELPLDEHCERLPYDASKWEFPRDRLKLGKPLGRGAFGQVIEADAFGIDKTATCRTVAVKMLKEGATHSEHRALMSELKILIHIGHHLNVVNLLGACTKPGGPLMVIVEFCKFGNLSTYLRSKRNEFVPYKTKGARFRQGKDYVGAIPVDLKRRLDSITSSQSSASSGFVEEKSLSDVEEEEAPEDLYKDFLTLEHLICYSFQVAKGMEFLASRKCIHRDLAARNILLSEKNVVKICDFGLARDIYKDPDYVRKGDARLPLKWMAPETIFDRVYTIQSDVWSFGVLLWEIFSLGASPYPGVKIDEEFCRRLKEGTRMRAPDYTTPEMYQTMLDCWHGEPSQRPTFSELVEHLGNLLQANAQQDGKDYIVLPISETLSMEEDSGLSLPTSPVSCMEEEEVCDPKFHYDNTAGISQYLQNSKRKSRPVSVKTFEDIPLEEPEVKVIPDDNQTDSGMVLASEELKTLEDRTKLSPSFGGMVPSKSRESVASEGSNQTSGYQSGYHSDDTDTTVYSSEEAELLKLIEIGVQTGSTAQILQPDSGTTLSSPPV

## CC(C)(C)S(=O)(=O)c1ccc2nccc(Nc3n[nH]c4ccc(F)cc34)c2c1
[1]
  inhibition: Active
[2]
  clearance: 15 mL/min/kg
[3]
  Activity: Dose-dependent effect
[4]
  Vd: 2 L/kg
[5]
  inhibition: Dose-dependent effect
[6]
  IC50: > 5000 nM
[7]
  half-life: 2.1 h
[8]
  AUC: 980 ng·h/mL
[9]
  inhibition: inactive
[10]
  inhibition: Active
[11]
  fraction unbound: 0.026
[12]
  IC50: 16 nM
[13]
  IC50: 2 nM
[14]
  inhibition: Active
[15]
  IC50: 5120 nM
[16]
  Cmax: 260 ng/mL
